The text below walks through data of patent US4672058A, “N[[5-(trifluoromethyl)-6-methoxy-1-naphthalenyl]-thioxomethyl]-N -methylglycinamides” (American Home Products Corporation, priority 1985, dated 1987).

The structures appear in SMILES notation.

The subject of experiment [1] is aldose reductase. Conditions: literature, in words; cited from earlier work.
For experiment [2], the system named is accumulation of dulcitol. As to the kind of experiment: Lowering of dulcitol accumulation in lens, sciatic nerve and diaphragm of galactosemic rats (in vivo). The settings on record: for % lowering dulcitol accumulation in vivo, D: diaphragm. Further details: species or system rat (Sprague-Dawley, male). From the text:
Such experiments are exemplified hereinbelow after the listing of the following general comments pertaining to these experiments:
(a) Four or more groups of six male rats, 50-70 g, Sprague-Dawley strain, were used. The first group, the control group, was fed a mixture of laboratory chow (rodent Laboratory Chow, Purina) and glucose at 20% (w/w %) concentration. The untreated galactosemic group was fed a similar diet in which galactose is substituted for glucose. The third group was fed a diet prepared by mixing a given amount of the test compound with the galactose containing diet. The concentration of galactose in the diet of the treated groups was the same as that for the untreated galactosemic group.
(b) After four days, the animals were killed by decapitation. The eyeballs were removed and punctured with a razor blade; the freed lenses were rolled gently on filter paper and weighed. The sciatic nerves were dissected as completely as possible and weighed. Both tissues when frozen can be kept up to two weeks before being analyzed for dulcitol.
(c) The polyol determination was performed by a modification of the procedure of M. Kraml and L. Cosyns, Clin. Biochem., 2,373 (1969). Only two minor reagent changes were made: (a) The rinsing mixture was an aqueous 5% (w/v) trichloroacetic acid solution and (b) the stock solution was prepared by dissolving 25 mg of dulcitol in 100 ml of an aqueous trichloroacetic acid solution. [N.B.: For each experiment the average value found in the tissue from rats fed the glucose diet was subtracted from the individual values found in the corresponding tissue in galactose-fed rats to obtain the amount of polyol accumulated.] […] In the present case the procedure of Hayman and Kinoshita was modified in that the final chromatography step was omitted in the preparation of the enzyme from bovine lens.
The figures under L, N and D represent the percentage decrease of dulcitol accumulation in the tissues of the lens, sciatic nerve and diaphragm, respectively, for treated rats as compared to untreated rats.

For `O=C1NC(=O)[C@@]2(CCOc3ccc(F)cc32)N1` [sorbinil, (S)-6-Fluoro-2,3-dihydrospiro(4H-1-benzopyran-4,4'-imidazolidine)-2',5'-dione], in experiment [1], the “inhibition of aldose reductase, as reported” value is on record as “aldose reductase inhibiting properties”.
Consider `COC(=O)NC(=O)CN(C)C(=S)c1cccc2c(C(F)(F)F)c(OC)ccc12` [Compound 6, [[[5-(Trifluoromethyl)-6-methoxy-1-naphthalenyl]thioxomethyl](methylamino)acetyl]carbamic acid, Methyl Ester], for which the “% lowering dulcitol accumulation in vivo, D” value in experiment [2] (8.4 mg/kg/day in diet, 4 days) was found to be 69%; in experiment [2] (26 mg/kg/day in diet, 4 days) it was 88%.
As for `COc1ccc2c(C(=S)N(C)CC(=O)NC(N)=O)cccc2c1C(F)(F)F` [Compound 5, [[[5-(Trifluoromethyl)-6-methoxy-1-naphthalenyl]thioxomethyl](methylamino)acetyl]urea], the “% lowering dulcitol accumulation in vivo, D” value in experiment [2] (23 mg/kg/day in diet, 4 days) amounted to 64%.
As to `COC(=N)NC(=O)CN(C)C(=S)c1cccc2c(C(F)(F)F)c(OC)ccc12` [Compound 4, N-[[[[5-(Trifluoromethyl)-6-methoxy-1-naphthalenyl]thioxomethyl]methylamino]acetyl]carbamimidic Acid, Methyl Ester], the “% lowering dulcitol accumulation in vivo, D” value in experiment [2] (26 mg/kg/day in diet, 4 days) amounted to 76%. Besides, the “% lowering dulcitol accumulation in vivo, L” value in experiment [2] (lens, 26 mg/kg/day in diet, 4 days) was determined as 13%.
`COc1ccc2c(C(=S)N(C)CC(=O)N[C@H]3C(O)O[C@H](CO)[C@@H](O)[C@@H]3O)cccc2c1C(F)(F)F` (stereo partly drawn) [Compound 7, 2-Deoxy-2-[[[[[6-methoxy-5-(trifluoromethyl)-1-naphthalenyl]thioxomethyl]methylamino]acetyl]amino]-D-glucose]: the “% lowering dulcitol accumulation in vivo, D” value in experiment [2] (161 mg/kg/day in diet, 4 days) is recorded as 37%.
As for `COc1ccc2c(C(=S)N(C)CC(=O)N(C)C)cccc2c1C(F)(F)F` [Compound 3, 2-[[[6-Methoxy-5-(trifluoromethyl)-1-naphthalenyl]thioxomethyl]methylamino]-N,N-dimethylacetamide], the “% lowering dulcitol accumulation in vivo, D” value in experiment [2] (55 mg/kg/day in diet, 4 days) is reported as 85%.
Consider `O=C(O)CN1C(=O)c2cccc3cccc(c23)C1=O` [1,3-Dioxo-1H-benz[de]isoquinoline-2(3H)-acetic acid], for which, in experiment [1], the “inhibition of aldose reductase, as reported” value is reported as “effective inhibitor of aldose reductase”.
In the case of `COc1ccc2c(C(=S)N(C)CC(N)=O)cccc2c1C(F)(F)F` [Compound 1, N-[[5-(trifluoromethyl)-6-methoxy-1-naphthalenyl]-thioxomethyl]-N-methylglycinamide], in experiment [2] (5 mg/kg/day in diet, 4 days), the “% lowering dulcitol accumulation in vivo, D” value was 66%. For the same molecule, the “results compared with N-[[5-(trifluoromethyl)-6-methoxy-1-naphthalenyl]-thioxomethyl]-N-methylglycine (tolrestat)” value in experiment [2] (dose of 5 mg/kg/day, in words) is on record as “comparable results”.
